15 molecules from patent US10077261B2, “Imidazolin-5-one derivative useful as FASN inhibitors for the treatment of cancer” (Janssen Pharmaceutica NV, priority 2012, dated 2018) can be followed below.

Assay [1] concerns the target T1, hFASN enzyme (full length) (Homo sapiens, UniProt P49327).
T1 construct: 10 μL hFASN enzyme (full length, 300 ng, purified in house); made in house
The experiment in a line: Fatty Acid Synthase (FASN) inhibition scintillation proximity assay. The conditions noted are these: for inhibition at 10 µM: read-out: Human FASN % inhibition @ 10 μM, 10 μM test compound; for IC50: read-out: Human FASN pIC50 (converted). In kind it is biochemical. In short, it runs like this: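 Proximity read-out: hydrophobic ^3H-palmitate formed from ^3H-acetyl-CoA and malonyl-CoA binds streptavidin imaging beads, imaged at 610±20 nm at least 24 h after stopping. Enzyme was in-house purified full-length hFASN, 300 ng, in pH 7.5 phosphate/DTT buffer; compound series 30 μM down to 0.01 μM, normalized to controls, 4-parameter fit.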
(SPA uses beads or plates that emit light when radiolabelled molecules are held near them.)

Assay [2] concerns A2780 ovarian cells. The experiment in a line: A2780 ovarian cell proliferation assay in lipid reduced medium, with palmitate (MTT). In kind it is cell-based. The conditions noted are these: Homo sapiens, A2780, 96 h; read-out: pIC50 A2780 Ovarian Cell, With Palmitate (converted). In short, it runs like this:
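In this palmitate-supplemented format, compound dilutions (30 μM down to 0.01 μM) are added to cells in lipid-reduced serum with 25 μM palmitate, 0.2% fatty-acid-free BSA and 0.25% ethanol. After four days (96 h) MTT absorbance at 544 nm is recorded and fitted by minimum sum of squares.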

Assay [3] has as its system A2780 ovarian cells. The experiment in a line: A2780 ovarian cell proliferation assay in lipid reduced medium, without palmitate (MTT). In kind it is cell-based. Particulars: Homo sapiens, A2780, 96 h; read-out: pIC50 A2780 Ovarian Cell, Without Palmitate (converted).
In assay [4] the test system is LNCaP-Vancouver prostate cells. In words: In vitro LNCaP Vancouver prostate cell proliferation assay in lipid reduced medium. Particulars: read-out: pIC50 LNCaP_Vancouver prostate cell (converted). The format is cell-based.
The subject of assay [5] is PC-3M-Luc-C6 prostate cells. The experiment in a line: In vitro PC-3M-Luc-C6 prostate cell proliferation assay in lipid reduced medium. In kind it is cell-based. Particulars: 96 h, read-out: pIC50 PC-3M-Luc-C6 prostate cell (converted).
Assay [6] has as its target Fatty Acid Synthase Keto-reductase Domain (FASN KR) (Homo sapiens, UniProt P49327). The experiment in a line: Fatty Acid Synthase keto-reductase domain (FASN KR) inhibition, NADPH oxidation at 340 nm.
Method: After 20 minutes incubation at room temperature the plate was measured again (T2).
The decrease in absorbance was calculated as (Absorbance before incubation T1)−(Absorbance following incubation T2).
A plot of Controlmin versus test compound concentration was fitted to a 4-parameter logistic curve using a non-linear least squares regression method.

T1 sequence (P49327 whole entry): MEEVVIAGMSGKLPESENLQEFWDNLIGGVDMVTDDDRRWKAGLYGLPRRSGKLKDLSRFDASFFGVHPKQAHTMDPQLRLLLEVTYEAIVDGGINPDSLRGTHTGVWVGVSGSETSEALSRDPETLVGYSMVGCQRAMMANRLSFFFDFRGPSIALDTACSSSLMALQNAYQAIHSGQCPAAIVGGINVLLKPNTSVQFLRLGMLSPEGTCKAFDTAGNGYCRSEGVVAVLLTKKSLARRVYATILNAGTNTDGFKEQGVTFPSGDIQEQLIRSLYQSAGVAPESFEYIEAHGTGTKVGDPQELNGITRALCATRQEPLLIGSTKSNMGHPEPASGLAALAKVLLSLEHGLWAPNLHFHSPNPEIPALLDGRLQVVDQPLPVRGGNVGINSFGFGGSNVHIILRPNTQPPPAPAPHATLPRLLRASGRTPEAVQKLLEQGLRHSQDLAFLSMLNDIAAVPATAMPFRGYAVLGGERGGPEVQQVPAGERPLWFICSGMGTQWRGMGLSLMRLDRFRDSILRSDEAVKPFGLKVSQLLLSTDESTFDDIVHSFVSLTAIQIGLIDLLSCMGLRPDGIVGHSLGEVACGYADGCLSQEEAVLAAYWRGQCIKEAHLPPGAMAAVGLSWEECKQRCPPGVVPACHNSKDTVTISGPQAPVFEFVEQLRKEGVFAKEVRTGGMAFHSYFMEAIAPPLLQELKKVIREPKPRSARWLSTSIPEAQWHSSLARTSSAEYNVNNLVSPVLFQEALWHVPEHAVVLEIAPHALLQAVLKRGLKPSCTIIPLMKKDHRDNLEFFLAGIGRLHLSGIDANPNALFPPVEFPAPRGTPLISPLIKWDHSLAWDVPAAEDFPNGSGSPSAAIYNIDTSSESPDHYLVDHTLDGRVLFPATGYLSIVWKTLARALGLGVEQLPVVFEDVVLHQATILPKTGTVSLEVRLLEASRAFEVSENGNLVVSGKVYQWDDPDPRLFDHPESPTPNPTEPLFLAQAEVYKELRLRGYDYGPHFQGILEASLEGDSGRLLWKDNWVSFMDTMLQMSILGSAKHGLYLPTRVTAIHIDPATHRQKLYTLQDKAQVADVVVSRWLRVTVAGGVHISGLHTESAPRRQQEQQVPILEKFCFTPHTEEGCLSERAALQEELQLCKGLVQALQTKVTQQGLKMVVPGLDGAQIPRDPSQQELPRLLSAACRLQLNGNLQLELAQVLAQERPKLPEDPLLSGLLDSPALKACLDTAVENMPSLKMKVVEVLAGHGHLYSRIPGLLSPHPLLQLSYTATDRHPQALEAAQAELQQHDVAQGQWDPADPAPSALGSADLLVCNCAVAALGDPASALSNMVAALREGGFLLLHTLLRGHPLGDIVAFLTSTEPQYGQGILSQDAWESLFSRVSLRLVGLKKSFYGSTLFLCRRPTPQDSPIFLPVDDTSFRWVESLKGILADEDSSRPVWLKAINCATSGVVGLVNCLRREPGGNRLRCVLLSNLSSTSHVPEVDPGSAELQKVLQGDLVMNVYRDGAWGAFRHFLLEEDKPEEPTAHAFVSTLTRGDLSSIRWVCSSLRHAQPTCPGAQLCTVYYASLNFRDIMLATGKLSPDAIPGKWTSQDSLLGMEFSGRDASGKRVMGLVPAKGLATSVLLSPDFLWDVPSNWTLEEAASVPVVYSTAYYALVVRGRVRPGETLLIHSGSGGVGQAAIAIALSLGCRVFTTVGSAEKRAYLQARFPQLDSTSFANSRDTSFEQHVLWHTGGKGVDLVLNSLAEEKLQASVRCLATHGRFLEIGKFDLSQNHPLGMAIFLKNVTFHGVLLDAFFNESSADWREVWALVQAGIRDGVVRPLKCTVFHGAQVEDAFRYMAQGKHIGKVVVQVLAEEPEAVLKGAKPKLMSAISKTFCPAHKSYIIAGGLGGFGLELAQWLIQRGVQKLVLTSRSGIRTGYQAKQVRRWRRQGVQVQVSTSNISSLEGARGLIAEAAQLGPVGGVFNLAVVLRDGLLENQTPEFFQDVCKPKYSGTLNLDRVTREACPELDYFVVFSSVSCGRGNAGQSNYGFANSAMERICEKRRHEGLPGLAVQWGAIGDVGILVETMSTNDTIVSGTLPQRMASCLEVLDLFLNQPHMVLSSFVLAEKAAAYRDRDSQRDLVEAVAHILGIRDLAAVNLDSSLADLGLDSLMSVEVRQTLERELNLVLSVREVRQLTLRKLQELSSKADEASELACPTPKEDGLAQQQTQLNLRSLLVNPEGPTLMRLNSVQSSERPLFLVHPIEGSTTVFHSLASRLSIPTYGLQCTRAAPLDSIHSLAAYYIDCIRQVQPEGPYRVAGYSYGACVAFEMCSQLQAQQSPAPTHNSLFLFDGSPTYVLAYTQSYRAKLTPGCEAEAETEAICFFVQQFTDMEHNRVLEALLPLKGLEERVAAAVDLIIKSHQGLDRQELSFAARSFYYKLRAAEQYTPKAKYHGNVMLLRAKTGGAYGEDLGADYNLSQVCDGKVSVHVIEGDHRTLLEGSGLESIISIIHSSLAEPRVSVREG
Chain of Fatty Acid Synthase Keto-reductase Domain (FASN KR) (P49327 whole entry, the tested form may be a part): as the sequence (P49327 whole entry) above

As to `Cn1cc(-c2ccc(-c3ccc(C4=NC5(CC5)C(=O)N4CC4CN(C(=O)C5CC5)C4)cc3)nc2)cn1` [compound 534, 6-{[1-(Cycloprropylcarbonyl)azetidin-3-yl]methyl}-5-{4-[5-(1-methyl-1H-pyrazol-4-yl)pyridin-2-yl]phenyl}-4,6-diazaspiro[2.4]hept-4-en-7-one], the inhibition (in general, the change of the read-out against control, counted positive when it falls) at 10 µM in assay [1] is 95%. Also, the IC50 was 162 nM in assay [1]; more than 10000 nM with A2780 ovarian cells [2]; 776 nM in the assay on A2780 ovarian cells [3]; approximately 5620 nM in assay [4]; 1000 nM in assay [5]; 1380 nM in assay [6].
`O=C(C1CC1)N1CC(CN2C(=O)C3(CC3)N=C2c2ccc(-c3ccc4nn(CCO)cc4c3)cc2F)C1` [compound 536, 6-{[1-(Cyclopropylcarbonyl)azetidin-3-yl]methyl}-5-{2-fluoro-4-[2-(2-hydroxyethyl)-2H-indazol-5-yl]phenyl}-4,6-diazaspiro[2.4]hept-4-en-7-one]: in assay [1], the inhibition at 10 µM turned out to be 88%. For the same molecule, the IC50 in assay [1] is 1230 nM; with A2780 ovarian cells [2], more than 10000 nM; in the assay with A2780 ovarian cells [3], 955 nM; in assay [4], approximately 7590 nM; in assay [5], approximately 3090 nM; in assay [6] it was 3550 nM.
Consider `O=C(C1CC1)N1CC(CN2C(=O)C3(CC3)N=C2c2ccc(-c3ccc(Cl)cc3F)cc2F)C1` [compound 537, 5-(4′-Chloro-2′,3-difluorobiphenyl-4-yl)-6-{[1-(cyclopropylcarbonyl)azetidin-3-yl]methyl}-4,6-diazaspiro[2.4]hept-4-en-7-one], for which the inhibition at 10 µM in assay [1] amounted to 99%. The IC50 in assay [1] is 174 nM; with A2780 ovarian cells [2], more than 10000 nM; in the assay on A2780 ovarian cells [3], 263 nM; in assay [4], 1320 nM; in assay [5], 617 nM; in assay [6], 427 nM.
For `Cn1ccc2ccc(-c3ccc(C4=NC5(CC5)C(=O)N4CC4CN(C(=O)C5CC5)C4)cc3)cc21` [compound 541, 6-{[1-(Cyclopropylcarbonyl)azetidin-3-yl]methyl}-5-[4-(1-methyl-1H-indol-6-yl)phenyl]-4,6-diazaspiro[2.4]hept-4-en-7-one], in assay [1], the inhibition at 10 µM stood at 100%. Moreover, the IC50 in assay [1] was 110 nM; with A2780 ovarian cells [2], more than 10000 nM; in the assay with A2780 ovarian cells [3], 282 nM; in assay [4] it was approximately 1020 nM; in assay [5] it was 309 nM; in assay [6], 339 nM.
Take `Cn1ccc(-c2ccc(-c3ccc(C4=NC5(CC5)C(=O)N4CC4CN(C(=O)C5CC5)C4)cc3)cc2)n1` [compound 542, 6-{[1-(Cyclopropylcarbonyl)azetidin-3-yl]methyl}-5-[4′-(1-methyl-1H-pyrazol-3-yl)biphenyl-4-yl]-4,6-diazaspiro[2.4]hept-4-en-7-one]: in assay [1], the inhibition at 10 µM came to 89%. The IC50 in assay [1] is 692 nM; in the assay on A2780 ovarian cells [2], more than 10000 nM; in the assay with A2780 ovarian cells [3], 832 nM; in assay [4], 3020 nM; in assay [5], 4470 nM; in assay [6], 1620 nM.
As for `CC(C)Cn1cc(-c2ccc(-c3ccc(C4=NC5(CC5)C(=O)N4CC4CN(C(=O)C5CC5)C4)cc3)cc2)cn1` [compound 544, 6-{[1-(Cyclopropylcarbonyl)azetidin-3-yl]methyl}-5-{4′-[1-(2-methylpropyl)-1H-pyrazol-4-yl]biphenyl-4-yl}-4,6-diazaspiro[2.4]hept-4-en-7-one], the inhibition at 10 µM in assay [1] amounted to 98%. The IC50 in assay [1] was 204 nM; with A2780 ovarian cells [2], 1620 nM; with A2780 ovarian cells [3], 52.5 nM; in assay [4], 776 nM; in assay [5], 141 nM; in assay [6], 724 nM.
Regarding `Cc1cc(-c2ccc3c(cnn3C)c2)ccc1C1=NC2(CC2)C(=O)N1CC1CN(C(=O)C2CCO2)C1` (stereo not drawn) [compound 545, 5-[2-Methyl-4-(1-methyl-1H-indazol-5-yl)phenyl]-6-{[1-(oxetan-2-ylcarbonyl)azetidin-3-yl]methyl}-4,6-diazaspiro[2.4]hept-4-en-7-one], the inhibition at 10 µM in assay [1] turned out to be 101%. The IC50 in assay [1] is 110 nM; with A2780 ovarian cells [2], more than 10000 nM; in the assay with A2780 ovarian cells [3], 91.2 nM; in assay [4], 269 nM; in assay [5], 126 nM; in assay [6], 257 nM.
As for `Cc1ccnc2cc(-c3ccc(C4=NC5(CC5)C(=O)N4CC4CN(C(=O)C5CC5)C4)cc3)ccc12` [compound 554, 6-{[1-(Cyclopropylcarbonyl)azetidin-3-yl]methyl}-5-[4-(4-methylquinolin-7-yl)phenyl]-4,6-diazaspiro[2.4]hept-4-en-7-one], the inhibition at 10 µM in assay [1] worked out at 97%. Also, the IC50 in assay [1] was 129 nM; in the assay on A2780 ovarian cells [2], 7760 nM; with A2780 ovarian cells [3] it was approximately 145 nM; in assay [4], 646 nM; in assay [5], approximately 174 nM; in assay [6], 269 nM.
Turning to `Cc1nc2ccc(-c3ccc(C4=NC5(CC5)C(=O)N4CC4CN(C(=O)C5CC5)C4)c(F)c3)cc2s1` [compound 558, 6-{[1-(Cyclopropylcarbonyl)azetidin-3-yl]methyl}-5-[2-fluoro-4-(2-methyl-1,3-benzothiazol-6-yl)phenyl]-4,6-diazaspiro[2.4]hept-4-en-7-one], the inhibition at 10 µM in assay [1] is 96%. The IC50 in assay [1] was 186 nM; with A2780 ovarian cells [2] it was 6310 nM; with A2780 ovarian cells [3], approximately 562 nM; in assay [4] it was 2510 nM; in assay [5], 724 nM; in assay [6] it was 708 nM.
Take `Cc1nc2cc(-c3ccc(C4=NC5(CC5)C(=O)N4CC4CN(C(=O)C5CC5)C4)cc3)ccc2s1` [compound 562, 6-{[1-(Cyclopropylcarbonyl)azetidin-3-yl]methyl}-5-[4-(2-methyl-1,3-benzothiazol-5-yl)phenyl]-4,6-diazaspiro[2.4]hept-4-en-7-one]: the inhibition at 10 µM in assay [1] was 97%. The IC50 in assay [1] is 245 nM; in the assay on A2780 ovarian cells [2], more than 10000 nM; in the assay with A2780 ovarian cells [3], 955 nM; in assay [4], 3090 nM; in assay [5] it was 1620 nM; in assay [6] it was 1380 nM.
`Cn1nccc1-c1ccc(-c2ccc(C3=NC4(CC4)C(=O)N3CC3CN(C(=O)C4(C)CC4)C3)c(F)c2)cc1` [compound 566, 5-[3-Fluoro-4′-(1-methyl-1H-pyrazol-5-yl)biphenyl-4-yl]-6-({1-[(1-methylcyclopropyl)carbonyl]azetidin-3-yl}methyl)-4,6-diazaspiro[2.4]hept-4-en-7-one]: the inhibition at 10 µM in assay [1] was 93%. The IC50 in assay [1] is 380 nM; in the assay with A2780 ovarian cells [2], more than 10000 nM; in the assay on A2780 ovarian cells [3] it was 295 nM; in assay [4], 1550 nM; in assay [5], 575 nM; in assay [6], 776 nM.
With `Cc1ccc2ccc(-c3ccc(C4=NC5(CC5)C(=O)N4CC4CN(C(=O)C5(C)CC5)C4)c(C)c3)cc2n1` [compound 576, 6-({1-[(1-Methylcyclopropyl)carbonyl]azetidin-3-yl}methyl)-5-[2-methyl-4-(2-methylquinolin-7-yl)phenyl]-4,6-diazaspiro[2.4]hept-4-en-7-one], the inhibition at 10 µM in assay [1] came out at 99%. The IC50 in assay [1] is 380 nM; in the assay on A2780 ovarian cells [2] it was more than 10000 nM; in the assay on A2780 ovarian cells [3] it was 288 nM; in assay [4], 2140 nM; in assay [5] it was 676 nM; in assay [6], 676 nM.
In the case of `Cc1cc(-c2cccc(NS(=O)(=O)C3CC3)c2)ccc1C1=NC2(CC2)C(=O)N1CC1CN(C(=O)C2CC2)C1` [compound 578, N-[4′-(6-{[1-(Cyclopropylcarbonyl)azetidin-3-yl]methyl}-7-oxo-4,6-diazaspiro[2.4]hept-4-en-5-yl)-3′-methylbiphenyl-3-yl]cyclopropanesulfonamide], the inhibition at 10 µM in assay [1] was determined as 92%. In addition, the IC50 is 646 nM in assay [1]; more than 10000 nM in the assay on A2780 ovarian cells [2]; 331 nM with A2780 ovarian cells [3]; 5010 nM in assay [4]; 871 nM in assay [5]; 1550 nM in assay [6].
As to `Cc1cc(-c2ccc3ccc(C(N)=O)nc3c2)ccc1C1=NC2(CC2)C(=O)N1CC1CN(C(=O)C2(C)CC2)C1` [compound 579, 7-{3-Methyl-4-[6-({1-[(1-methylcyclopropyl)carbonyl]azetidin-3-yl}methyl)-7-oxo-4,6-diazaspiro[2.4]hept-4-en-5-yl]phenyl}quinoline-2-carboxamide], the inhibition at 10 µM in assay [1] was 83%. The IC50 in assay [1] was 1100 nM; in the assay on A2780 ovarian cells [2] it was more than 10000 nM; in the assay on A2780 ovarian cells [3], 1100 nM; in assay [4] it was 4570 nM; in assay [5] it was 2000 nM; in assay [6] it was 4570 nM.
Regarding `Cc1cc(-c2ccc3c(c2)cc(C)n3C)ccc1C1=NC2(CC2)C(=O)N1CC1CN(C(=O)C2CC2)C1` [compound 582, 6-{[1-(Cyclopropylcarbonyl)azetidin-3-yl]methyl}-5-[4-(1,2-dimethyl-1H-indol-5-yl)-2-methylphenyl]-4,6-diazaspiro[2.4]hept-4-en-7-one], in assay [1], the inhibition at 10 µM stood at 103%. Besides, the IC50 in assay [1] was 324 nM; in the assay with A2780 ovarian cells [2] it was more than 10000 nM; in the assay with A2780 ovarian cells [3], approximately 631 nM; in assay [4], 3240 nM; in assay [5], 794 nM; in assay [6], 1200 nM.
